From BindingDB's records for doi:10.1016/j.bioorg.2016.07.006 (Dumlupinar University, 2016)

Columns and labels:
Carbonic anhydrase 1 = Carbonic anhydrase 1 (Homo sapiens, UniProt P00915); assay: In vitro Carbonic Anhydrase Inhibition Assay
Experimental: (§1) CA activity was measured according to the method described by Verpoorte et al. in inhibition studies, spectrophotometrically [Biochem., 242:4221-4229]. The reaction mixture contains 50 mM Tris-SO4 buffer (pH = 7.4), 3 mM 4-nitrophenylacetate and enzyme solution in 1 ml total volume. A reference measurement was done by using the same cuvette without enzyme solution. The measurement was repeated in triplicate at each concentration of 5-amino-1,3,4-thiadiazole-2-sulfonamide containing pyrazole derivatives.

Carbonic anhydrase 2 = Carbonic anhydrase 2 (Homo sapiens, UniProt P00918); assay: In vitro Carbonic Anhydrase Inhibition Assay
Experimental: as §1

Chain of Carbonic anhydrase 1 (P00915 whole entry): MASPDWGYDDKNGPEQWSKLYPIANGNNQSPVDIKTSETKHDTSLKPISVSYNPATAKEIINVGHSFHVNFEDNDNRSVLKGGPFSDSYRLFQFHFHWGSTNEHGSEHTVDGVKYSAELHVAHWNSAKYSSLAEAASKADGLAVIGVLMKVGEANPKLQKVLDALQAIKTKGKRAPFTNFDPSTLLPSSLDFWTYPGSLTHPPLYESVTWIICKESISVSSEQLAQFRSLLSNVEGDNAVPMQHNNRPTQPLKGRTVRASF

Row | Ki (Carbonic anhydrase 1) | Ki (Carbonic anhydrase 2) | Compound
1 | 4 µM | 0.878 µM | NS(=O)(=O)c1nnc(NC(=O)c2nn(-c3cccc(NN=C(C(=O)c4ccccc4)C(=O)c4ccccc4)c3)c(-c3ccccc3)c2C(=O)Nc2nnc(S(N)(=O)=O)s2)s1 [1-(3-(2-(1,3-Dioxo-1,3-diphenylpropan-2-ylidene)hydrazinyl)phenyl)-5-phenyl-N3,N4-bis(5-sulfamoyl-1,3,4-thiadiazol-2-yl)-1Hpyrazole-3,4-dicarboxamide (8)]
2 | 0.119 µM | 0.119 µM | CC(=O)/C(=N/Nc1cccc(-n2nc(C(=O)Nc3nnc(S(N)(=O)=O)s3)c(C(=O)Nc3nnc(S(N)(=O)=O)s3)c2-c2ccccc2)c1)C(=O)c1ccccc1 [1-(3-(2-(1,3-Dioxo-1-phenylbutan-2-ylidene)hydrazinyl)phenyl)-5-phenyl-N3,N4-bis(5-sulfamoyl-1,3,4-thiadiazol-2-yl)-1H-pyrazole-3,4-dicarboxamide (6)]
3 | 0.767 µM | 0.494 µM | CC(=O)C(=NNc1cccc(-n2nc(C(=O)Nc3nnc(S(N)(=O)=O)s3)c(C(=O)Nc3nnc(S(N)(=O)=O)s3)c2-c2ccccc2)c1)C(C)=O [1-(3-(2-(2,4-Dioxopentan-3-ylidene)hydrazinyl)phenyl)-5-phenyl-N3,N4-bis(5-sulfamoyl-1,3,4-thiadiazol-2-yl)-1H-pyrazole-3,4-dicarboxamide (5)]
4 | 0.787 µM | 0.288 µM | CC1(C)CC(=O)C(=NNc2cccc(-n3nc(C(=O)Nc4nnc(S(N)(=O)=O)s4)c(C(=O)Nc4nnc(S(N)(=O)=O)s4)c3-c3ccccc3)c2)C(=O)C1 [1-(3-((2-Hydroxy-4,4-dimethyl-6-oxocyclohex-1-en-1-yl)diazenyl)phenyl)-5-phenyl-N3,N4-bis(5-sulfamoyl-1,3,4-thiadiazol-2-yl)-1H-pyrazole-3,4-dicarboxamide (14)]
5 | 0.508 µM | 0.157 µM | NS(=O)(=O)c1nnc(NC(=O)c2nn(-c3cccc(NN=C4C(=O)CCCC4=O)c3)c(-c3ccccc3)c2C(=O)Nc2nnc(S(N)(=O)=O)s2)s1 [1-(3-((2-Hydroxy-6-oxocyclohex-1-en-1-yl)diazenyl)phenyl)-5-phenyl-N3,N4-bis(5-sulfamoyl-1,3,4-thiadiazol-2-yl)-1H-pyrazole-3,4-dicarboxamide (13)]
6 | 1.66 µM | 0.411 µM | NS(=O)(=O)c1nnc(NC(=O)c2nn(-c3cccc(/N=N/c4c(O)ccc5ccccc45)c3)c(-c3ccccc3)c2C(=O)Nc2nnc(S(N)(=O)=O)s2)s1 [1-(3-((2-Hydroxynaphthalen-1-yl)diazenyl)phenyl)-5-phenyl-N3,N4-bis(5-sulfamoyl-1,3,4-thiadiazol-2-yl)-1H-pyrazole-3,4-dicarboxamide (4)]
7 | 0.461 µM | 0.203 µM | CCOC(=O)C(=NNc1cccc(-n2nc(C(=O)Nc3nnc(S(N)(=O)=O)s3)c(C(=O)Nc3nnc(S(N)(=O)=O)s3)c2-c2ccccc2)c1)C(=O)OCC [Diethyl 2-(2-(3-(5-phenyl-3,4-bis((5-sulfamoyl-1,3,4-thiadiazol-2-yl)carbamoyl)-1H-pyrazol-1-yl)phenyl)hydrazono)malonate (10)]
8 | 0.71 µM | 0.208 µM | CCOC(=O)/C(=N\Nc1cccc(-n2nc(C(=O)Nc3nnc(S(N)(=O)=O)s3)c(C(=O)Nc3nnc(S(N)(=O)=O)s3)c2-c2ccccc2)c1)C(C)=O [Ethyl 3-oxo-2-(2-(3-(5-phenyl-3,4-bis((5-sulfamoyl-1,3,4-thiadiazol-2-yl)carbamoyl)-1H-pyrazol-1-yl)phenyl)hydrazono)butanoate (7)]
9 | 0.246 µM | 0.084 µM | CCCC(=O)/C(=N/Nc1cccc(-n2nc(C(=O)Nc3nnc(S(N)(=O)=O)s3)c(C(=O)Nc3nnc(S(N)(=O)=O)s3)c2-c2ccccc2)c1)C(=O)OCC [Ethyl 3-oxo-2-(2-(3-(5-phenyl-3,4-bis((5-sulfamoyl-1,3,4-thiadiazol-2-yl)carbamoyl)-1H-pyrazol-1-yl)phenyl)hydrazono)hexanoate (11)]
10 | 0.487 µM | 0.435 µM | CCOC(=O)/C(=N\Nc1cccc(-n2nc(C(=O)Nc3nnc(S(N)(=O)=O)s3)c(C(=O)Nc3nnc(S(N)(=O)=O)s3)c2-c2ccccc2)c1)C(=O)c1ccccc1 [Ethyl 3-oxo-3-phenyl-2-(2-(3-(5-phenyl-3,4-bis((5-sulfamoyl-1,3,4-thiadiazol-2-yl)carbamoyl)-1H-pyrazol-1-yl)phenyl)hydrazono)propanoate (9)]
11 | 0.318 µM | 0.092 µM | COC(=O)C(/N=N/c1cccc(-n2nc(C(=O)Nc3nnc(S(N)(=O)=O)s3)c(C(=O)Nc3nnc(S(N)(=O)=O)s3)c2-c2ccccc2)c1)S(=O)(=O)c1ccccc1 (centres undefined) [Methyl 2-((3-(5-phenyl-3,4-bis((5-sulfamoyl-1,3,4-thiadiazol-2-yl)carbamoyl)-1H-pyrazol-1-yl)phenyl)diazenyl)-2-(phenylsulfonyl)acetate (15)]
12 | 0.522 µM | 0.149 µM | CC(=O)/C(=N/Nc1cccc(-n2nc(C(=O)Nc3nnc(S(N)(=O)=O)s3)c(C(=O)Nc3nnc(S(N)(=O)=O)s3)c2-c2ccccc2)c1)C(=O)OC(C)(C)C [tert-Butyl 3-oxo-2-(2-(3-(5-phenyl-3,4-bis((5-sulfamoyl-1,3,4-thiadiazol-2-yl)carbamoyl)-1H-pyrazol-1-yl)phenyl)hydrazono)butanoate (12)]
